Experimental data: ChEMBL document CHEMBL1201862, “PubChem BioAssay data set” (2004)
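Following 48 hours of exposure in 96-well plates, responses at five concentrations were used to interpolate endpoints linearly. GI50 = concentration required for 50% inhibition of growth.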 The source made the active and inactive calls. No stated cut-off is given here; in the data, active = GI50 up to about 1.1 µM and inactive = higher.

Key:
Assay in all cases: NCI anticancer screen, dose series, 48 h
SK-OV-3 = test system: SK-OV-3
CCRF-CEM = test system: CCRF-CEM
T47D = test system: T47D
IGROV-1 = test system: IGROV-1
OVCAR-5 = test system: OVCAR-5
SN12C = test system: SN12C
MDA-MB-435 = test system: MDA-MB-435
OVCAR-4 = test system: OVCAR-4
EKVX = test system: EKVX
NCI-H460 = test system: NCI-H460
LOX IMVI = test system: LOX IMVI
TK-10 = test system: TK-10
NCI/ADR-RES = test system: NCI/ADR-RES
Hs-578T = test system: Hs-578T
HOP-62 = test system: HOP-62
KM12 = test system: KM12
UACC-62 = test system: UACC-62
HCC 2998 = test system: HCC 2998
SK-MEL-2 = test system: SK-MEL-2
SF-295 = test system: SF-295
DU-145 = test system: DU-145
HOP-92 = test system: HOP-92
U-251 = test system: U-251
HT-29 = test system: HT-29
RPMI-8226 = test system: RPMI-8226
MCF7 = test system: MCF7
HL-60 = test system: HL-60
HCT-15 = test system: HCT-15
RXF 393 = test system: RXF 393
SK-MEL-28 = test system: SK-MEL-28
OVCAR-8 = test system: OVCAR-8
BT-549 = test system: BT-549
ACHN = test system: ACHN
A549 = test system: A549
OVCAR-3 = test system: OVCAR-3
CAKI-1 = test system: CAKI-1
SNB-75 = test system: SNB-75
A498 = test system: A498
MDA-MB-231 = test system: MDA-MB-231
SW-620 = test system: SW-620
MDA-N = test system: MDA-N
PC-3 = test system: PC-3
NCI-H522 = test system: NCI-H522
NCI-H226 = test system: NCI-H226
MOLT-4 = test system: MOLT-4
K562 = test system: K562
UACC-257 = test system: UACC-257
M14 = test system: M14
SR = test system: SR
SNB-19 = test system: SNB-19
SF-539 = test system: SF-539
SK-MEL-5 = test system: SK-MEL-5
786-0 = test system: 786-0
HCT-116 = test system: HCT-116
Malme-3M = test system: Malme-3M
NCI-H23 = test system: NCI-H23
COLO 205 = test system: COLO 205
SF-268 = test system: SF-268
UO-31 = test system: UO-31

O=C1/C(=C/c2ccc(O)cc2)Oc2ccccc21
GI50 (SK-OV-3): > 100 µM (inactive) | GI50 (CCRF-CEM): 32.2 µM (inactive) | GI50 (T47D): > 100 µM (inactive) | GI50 (IGROV-1): > 100 µM (inactive) | GI50 (OVCAR-5): > 100 µM (inactive) | GI50 (SN12C): > 100 µM (inactive) | GI50 (MDA-MB-435): 83.9 µM (inactive) | GI50 (OVCAR-4): 72.6 µM (inactive) | GI50 (EKVX): > 100 µM (inactive) | GI50 (NCI-H460): > 100 µM (inactive) | GI50 (LOX IMVI): > 100 µM (inactive) | GI50 (TK-10): > 100 µM (inactive) | GI50 (NCI/ADR-RES): > 100 µM (inactive) | GI50 (Hs-578T): > 100 µM (inactive) | GI50 (HOP-62): > 100 µM (inactive) | GI50 (KM12): 90.6 µM (inactive) | GI50 (UACC-62): > 100 µM (inactive) | GI50 (HCC 2998): > 100 µM (inactive) | GI50 (SK-MEL-2): > 100 µM (inactive) | GI50 (SF-295): > 100 µM (inactive) | GI50 (DU-145): > 100 µM (inactive) | GI50 (HOP-92): > 100 µM (inactive) | GI50 (U-251): > 100 µM (inactive) | GI50 (HT-29): > 100 µM (inactive) | GI50 (RPMI-8226): 59.2 µM (inactive) | GI50 (MCF7): > 100 µM (inactive) | GI50 (HL-60): 35.6 µM (inactive) | GI50 (HCT-15): > 100 µM | GI50 (RXF 393): > 100 µM (inactive) | GI50 (SK-MEL-28): > 100 µM (inactive) | GI50 (OVCAR-8): > 100 µM (inactive) | GI50 (BT-549): > 100 µM (inactive) | GI50 (ACHN): > 100 µM (inactive) | GI50 (A549): > 100 µM (inactive) | GI50 (OVCAR-3): > 100 µM (inactive) | GI50 (CAKI-1): > 100 µM (inactive) | GI50 (SNB-75): 60.1 µM (inactive) | GI50 (A498): > 100 µM (inactive) | GI50 (MDA-MB-231): > 100 µM (inactive) | GI50 (SW-620): > 100 µM (inactive) | GI50 (MDA-N): > 100 µM (inactive) | GI50 (PC-3): > 100 µM (inactive) | GI50 (NCI-H522): 23.8 µM (inactive) | GI50 (NCI-H226): > 100 µM (inactive) | GI50 (MOLT-4): 44.9 µM (inactive) | GI50 (K562): 40.9 µM (inactive) | GI50 (UACC-257): > 100 µM (inactive) | GI50 (M14): > 100 µM (inactive) | GI50 (SR): 47.6 µM (inactive) | GI50 (SNB-19): > 100 µM (inactive) | GI50 (SF-539): > 100 µM (inactive) | GI50 (SK-MEL-5): > 100 µM (inactive) | GI50 (786-0): > 100 µM (inactive) | GI50 (HCT-116): 98.4 µM (inactive) | GI50 (Malme-3M): > 100 µM (inactive) | GI50 (NCI-H23): 62.7 µM (inactive) | GI50 (COLO 205): > 100 µM (inactive) | GI50 (SF-268): > 100 µM (inactive)

CCCCCCC(C)c1ccc2c(c1)C(=O)c1nc3ccncc3c(=O)n1-2 (configuration not stated)
GI50 (SK-OV-3): 5.9 µM (inactive) | GI50 (CCRF-CEM): 0.836 µM (active) | GI50 (T47D): 3.63 µM (inactive) | GI50 (IGROV-1): 2.51 µM (inactive) | GI50 (OVCAR-5): 5.43 µM (inactive) | GI50 (SN12C): 4.33 µM (inactive) | GI50 (MDA-MB-435): 0.352 µM (active) | GI50 (OVCAR-4): 1.66 µM (inactive) | GI50 (EKVX): 4.25 µM (inactive) | GI50 (NCI-H460): 2.07 µM (inactive) | GI50 (LOX IMVI): 1.06 µM (active) | GI50 (TK-10): 4.86 µM (inactive) | GI50 (NCI/ADR-RES): 5.68 µM (inactive) | GI50 (Hs-578T): 9.62 µM (inactive) | GI50 (HOP-62): 5.13 µM (inactive) | GI50 (KM12): 1.79 µM (inactive) | GI50 (UACC-62): 2.29 µM (inactive) | GI50 (HCC 2998): 3.94 µM (inactive) | GI50 (SK-MEL-2): 3.61 µM (inactive) | GI50 (SF-295): 6.38 µM (inactive) | GI50 (DU-145): 14.6 µM (inactive) | GI50 (HOP-92): 78.3 µM (inactive) | GI50 (U-251): 4.26 µM (inactive) | GI50 (HT-29): 2.1 µM (inactive) | GI50 (RPMI-8226): 1.15 µM (inactive) | GI50 (MCF7): 5.06 µM (inactive) | GI50 (HL-60): 0.26 µM (active) | GI50 (HCT-15): 1.3 µM | GI50 (RXF 393): 4.06 µM (inactive) | GI50 (SK-MEL-28): 14.5 µM (inactive) | GI50 (OVCAR-8): 6.87 µM (inactive) | GI50 (BT-549): 4.21 µM (inactive) | GI50 (ACHN): 3.33 µM (inactive) | GI50 (A549): 5.65 µM (inactive) | GI50 (OVCAR-3): 1.45 µM (inactive) | GI50 (CAKI-1): 2.54 µM (inactive) | GI50 (SNB-75): 8.59 µM (inactive) | GI50 (A498): 4.32 µM (inactive) | GI50 (MDA-MB-231): 2.54 µM (inactive) | GI50 (SW-620): 2.61 µM (inactive) | GI50 (MDA-N): 0.237 µM (active) | GI50 (PC-3): 3.54 µM (inactive) | GI50 (NCI-H522): 1.29 µM (inactive) | GI50 (NCI-H226): 4.16 µM (inactive) | GI50 (MOLT-4): 0.661 µM (active) | GI50 (K562): 0.419 µM (active) | GI50 (UACC-257): 2.84 µM (inactive) | GI50 (M14): 2.94 µM (inactive) | GI50 (SR): 0.225 µM (active) | GI50 (SNB-19): 4.81 µM (inactive) | GI50 (SF-539): 4.44 µM (inactive) | GI50 (SK-MEL-5): 1.42 µM (inactive) | GI50 (786-0): 2.29 µM (inactive) | GI50 (HCT-116): 2.5 µM (inactive) | GI50 (Malme-3M): 0.235 µM (active) | GI50 (NCI-H23): 2.14 µM (inactive) | GI50 (COLO 205): 2.87 µM (inactive) | GI50 (SF-268): 36.2 µM (inactive) | GI50 (UO-31): 2.17 µM (inactive)
